Results on two compounds are retold here after patent publication US12052991B2, “Substituted pyridinyloxybenzenes and salts thereof and use thereof as herbicidal agents” (Bayer Aktiengesellschaft, priority 2018, dated 2024).

Assay type in all cases: in vivo
Test [1] has as its system Alopecurus myosuroides (ALOMY). Description: Herbicidal post-emergence action (Table B9). To be noted: 1280 g/ha; rated visually after about 3 weeks; 100% = plants have died, 0% = like control plants. Summed up: (§1)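 Post-emergence spray, one-leaf stage (2–3 wk after sowing), sandy loam, greenhouse. WP/EC in water + 0.5% additive, 600 L/ha, 1280 or 320 g/ha. Visual % activity vs untreated after ~3 wk (0% = like control, 100% = plants dead).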

In test [2] the test system is Veronica persica (VERPE). Kind of test: Herbicidal post-emergence action (Table B12). To be noted: visual rating about 3 weeks after treatment, 100% = plants have died, 0% = like control plants. In outline: as §1
Test [3] has as its system Matricaria inodora (MATIN). Description: Herbicidal post-emergence action (Table B7). The note with it: rated visually after about 3 weeks, 100% = plants have died, 0% = like control plants. The procedure: Seeds of mono- and dicotyledonous weed plants were placed in plastic pots in sandy loam soil (doubly sown with in each case one species of mono- or dicotyledonous weed plants per pot), covered with soil and cultivated in a greenhouse under controlled growth conditions. 2 to 3 weeks after sowing, the test plants were treated at the one-leaf stage. The compounds of the invention, formulated in the form of wettable powders (WP) or as emulsion concentrates (EC), were applied onto the green parts of the plants as aqueous suspension or emulsion with addition of 0.5% additive at a water application rate of 600 liters per hectare (converted). After the test plants had been kept in the greenhouse under optimum growth conditions for about 3 weeks, the activity of the preparations was rated visually in comparison to untreated controls. For example, 100% activity=the plants have died, 0% activity=like control plants. Tables B1 to B12 below show the effects of selected compounds of the general formula (I) according to Table 1 on various harmful plants and an application rate corresponding to 1280 or 320 g/ha, which were obtained by the experimental procedure mentioned above.

Test [4] relates to Echinochloa crus-galli (ECHCG). Description: Herbicidal post-emergence action (Table B1). To be noted: 1280 g/ha; rated visually after about 3 weeks; 100% = plants have died, 0% = like control plants. In outline: as §1
The test system of test [5] is harmful plants ABUTH, AMARE, ECHCG, LOLRI, MATIN, POAAN, SETVI, STEME, ALOMY, DIGSA, KCHSC and VERPE. Description: Herbicidal post-emergence action, summary of Tables B1-B12. The note with it: application rate of 1280 or 320 g of active ingredient per hectare; summary in words. In outline: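 Activity scored by eye roughly 3 weeks post-treatment against untreated plants, from 0% (no effect) to 100% (plants dead). Application rates were 1280 or 320 g/ha, as aqueous WP/EC spray plus 0.5% additive at 600 L/ha, onto one-leaf-stage weeds grown 2–3 weeks in sandy loam.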

The test system of test [6] is Amaranthus retroflexus (AMARE). Kind of test: Herbicidal pre-emergence action, test C (Table C6). The note with it: visual scoring after about 3 weeks, 100% = plants have died, 0% = like control plants. Summed up:
(§2)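 Greenhouse pre-emergence test: compound formulations (WP or EC) are applied at 1280 or 320 g/ha to the soil surface over sown weed seeds, with 0.5% additive in 600 L/ha water. After about 3 weeks, percent activity is assessed visually, 100% indicating dead plants.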

For test [7], the system named is Digitaria sanguinalis (DIGSA). Kind of test: Herbicidal pre-emergence action, test C (Table C10). The note with it: visual scoring after about 3 weeks, 100% = plants have died, 0% = like control plants. In outline: as §2
Test [8] deals with Poa annua (POAAN). Description: Herbicidal pre-emergence action, test C (Table C3). The note with it: visual scoring after about 3 weeks, 100% = plants have died, 0% = like control plants. Summed up: as §2
The test system of another test is Stellaria media (STEME). Kind of test: Herbicidal post-emergence action (Table B8). To be noted: dosage 1280 g/ha; visual rating about 3 weeks after treatment; 100% = plants have died, 0% = like control plants. Summed up:
as §1

For test [9], the system named is Alopecurus myosuroides (ALOMY). Kind of test: Herbicidal pre-emergence action, test C (Table C9). To be noted: dosage 1280 g/ha; visual scoring after about 3 weeks; 100% = plants have died, 0% = like control plants. Summed up: as §2
The subject of test [10] is harmful plants ABUTH, AMARE, ECHCG, LOLRI, MATIN, POAAN, SETVI, STEME, ALOMY, DIGSA, KCHSC and VERPE. Kind of test: Herbicidal pre-emergence action (test C), summary of Tables C1-C12. To be noted: application rate of 1280 or 320 g of active ingredient per hectare; summary in words. In outline: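 Visual % damage versus untreated plants (0% = like control, 100% = died) was scored after about 3 weeks in the greenhouse. Before emergence, seeds sown in sandy loam got a soil-surface spray of compound as WP or EC plus 0.5% additive, using 600 L/ha water at rates of 1280 or 320 g/ha.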

Test [11] deals with Veronica persica (VERPE). Description: Herbicidal pre-emergence action, test C (Table C12). The note with it: dosage 1280 g/ha, visual scoring vs untreated controls. Summed up:
as §2

Test [12] deals with Abutilon theophrasti (ABUTH). Description: Herbicidal post-emergence action (Table B5). To be noted: rated visually after about 3 weeks, 100% = plants have died, 0% = like control plants. In outline: as §1
Test [13] has as its system Amaranthus retroflexus (AMARE). Description: Herbicidal post-emergence action (Table B6). The note with it: visual rating about 3 weeks after treatment, 100% = plants have died, 0% = like control plants. In outline:
as §1

Test [14] has as its system Poa annua (POAAN). Description: Herbicidal post-emergence action (Table B3). To be noted: rated visually after about 3 weeks, 100% = plants have died, 0% = like control plants. In outline:
as §1

Another test relates to Setaria viridis (SETVI). Kind of test: Herbicidal pre-emergence action, test C (Table C4). The note with it: dosage 1280 g/ha; visual scoring after about 3 weeks; 100% = plants have died, 0% = like control plants. In outline:
as §2

Turning to `Clc1ccc(Oc2ccccc2-c2ccc(Cl)cn2)nc1` [Example 1-75], in test [1], the “Post-emergence action against Alopecurus myosuroides (ALOMY)” value was found to be 90%. Also, in the test with Veronica persica (VERPE) [2] (dosage 1280 g/ha), the “Post-emergence action against Veronica persica (VERPE)” value is given as 100%. Moreover, the “Post-emergence action against Matricaria inodora (MATIN)” value in test [3] (1280 g/ha) came to 100%. Further, the “Post-emergence action against Echinochloa crus-galli (ECHCG)” value in test [4] was found to be 100%. In addition, the “herbicidal activity against the harmful plants of Tables B1-B12 in post-emergence treatment” value in [5] is given as “very good herbicidal activity”.

`Fc1cc(Cl)cnc1Oc1ccccc1-c1ccc(Cl)cn1` [Example 1-74]: the “Pre-emergence action against Amaranthus retroflexus (AMARE)” value in test [6] (dosage 320 g/ha) and in [6] (dosage 1280 g/ha) was 90% each time. In addition, the “Pre-emergence action against Digitaria sanguinalis (DIGSA)” value in test [7] (dosage 320 g/ha) stood at 90%; in test [7] (dosage 1280 g/ha), 100%. Moreover, the “Post-emergence action against Veronica persica (VERPE)” value in the test on Veronica persica (VERPE) [2] (dosage 320 g/ha) and with Veronica persica (VERPE) [2] (dosage 1280 g/ha) was 100% each time. Moreover, the “Pre-emergence action against Poa annua (POAAN)” value in the test on Poa annua (POAAN) [8] (dosage 320 g/ha) and with Poa annua (POAAN) [8] (dosage 1280 g/ha) was 100% each time. Also, the “Post-emergence action against Matricaria inodora (MATIN)” value in test [3] (320 g/ha) and in [3] (1280 g/ha) was 100% in each case. Moreover, the “Post-emergence action against Stellaria media (STEME)” value with Stellaria media (STEME) was determined as 90%. Besides, the “herbicidal activity against the harmful plants of Tables B1-B12 in post-emergence treatment” value in test [5] was “very good herbicidal activity”. In addition, the “Pre-emergence action against Alopecurus myosuroides (ALOMY)” value in [9] was found to be 100%. Also, the “herbicidal activity against the harmful plants of Tables C1-C12 in pre-emergence treatment” value in test [10] is “very good herbicidal activity”. The “Pre-emergence action against Veronica persica (VERPE)” value in the test with Veronica persica (VERPE) [11] was 90%. The “Post-emergence action against Abutilon theophrasti (ABUTH)” value in test [12] (320 g/ha) is given as 90%; in [12] (1280 g/ha) it was 100%. The “Post-emergence action against Amaranthus retroflexus (AMARE)” value in [13] (dosage 320 g/ha) and in test [13] (dosage 1280 g/ha) was 100% each time. The “Post-emergence action against Poa annua (POAAN)” value with Poa annua (POAAN) [14] (320 g/ha) and in the test with Poa annua (POAAN) [14] (1280 g/ha) was 100% throughout. Also, the “Pre-emergence action against Setaria viridis (SETVI)” value with Setaria viridis (SETVI) is recorded as 100%.
